ChEMBL document CHEMBL4480418, “Antibacterial activity of indolyl-quinolinium derivatives and study their mode of action” (Bioorg Med Chem, 2019)
Active and inactive are the calls of the source. The rule behind the calls is not given here.

Key:
[1] = system: Enterococcus faecalis; test: Antimicrobial activity against Enterococcus faecalis ATCC 29212 measured after 18 hrs by broth microdilution method; format: functional; conditions: ATCC 29212, 18 h
[2] = target: T1, Cell division protein FtsZ (Staphylococcus aureus) (UniProt P0A031); test: Inhibition of recombinant Staphylococcus aureus FtsZ polymerization at 0.4 to 1.2 ug/ml by 90 degree light scattering-based fluorescence spectrometric analysis; conditions: TDE = time-dependent effect
T1 sequence (whole entry): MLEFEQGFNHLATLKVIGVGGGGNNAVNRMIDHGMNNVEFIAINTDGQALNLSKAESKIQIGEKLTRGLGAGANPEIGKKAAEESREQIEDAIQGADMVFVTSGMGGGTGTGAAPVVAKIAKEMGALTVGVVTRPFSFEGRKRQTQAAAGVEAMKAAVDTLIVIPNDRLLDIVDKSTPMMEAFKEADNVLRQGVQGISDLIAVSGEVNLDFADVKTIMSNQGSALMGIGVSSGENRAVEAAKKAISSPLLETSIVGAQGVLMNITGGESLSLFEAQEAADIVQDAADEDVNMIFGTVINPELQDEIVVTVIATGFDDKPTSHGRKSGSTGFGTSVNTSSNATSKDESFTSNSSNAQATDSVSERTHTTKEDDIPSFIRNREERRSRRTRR

[3] = system: Enterococcus faecium; test: Antimicrobial activity against vancomycin-resistant Enterococcus faecium ATCC 700221 measured after 18 hrs by broth microdilution method; format: functional; conditions: ATCC 700221, 18 h
[4] = system: Staphylococcus aureus; test: Antimicrobial activity against penicillin-resistant Staphylococcus aureus ATCC 29213 assessed as ratio of MIC after and before 15 serial passages preincubated followed by replating and measured after 24 hrs; format: functional
[5] = target: T1, Cell division protein FtsZ (Staphylococcus aureus); test: Inhibition of Staphylococcus aureus FtsZ GTPase activity at 16 ug/ml preincubated for 10 mins followed by GTP addition and measured after 30 mins relative to control
[6] = system: Staphylococcus aureus; test: Ratio of MBC to MIC for methicillin-resistant Staphylococcus aureus ATCC BAA-41; format: functional
[7] = system: Bacillus subtilis; test: Disruption of membrane integrity in Bacillus subtilis 168 at MIC after 4 hrs by FM4-64 dye based confocal microscopic method; format: organism-based, subsp. subtilis str. 168
[8] = system: Staphylococcus aureus; test: Antimicrobial activity against methicillin-resistant Staphylococcus aureus ATCC BAA-41 measured after 18 hrs by broth microdilution method; format: functional; conditions: ATCC BAA-41, 18 h
[9] = system: Escherichia coli; test: Antimicrobial activity against Escherichia coli ATCC 25922 measured after 18 hrs by broth microdilution method; format: functional; conditions: ATCC 25922, 18 h
[10] = system: Escherichia coli; test: Antibacterial activity against Escherichia coli BL21 measured after 18 hrs by broth microdilution method; format: functional; conditions: BL21, 18 h
[11] = target: T1, Cell division protein FtsZ (Staphylococcus aureus); test: Inhibition of Staphylococcus aureus FtsZ GTPase activity at 4 ug/ml preincubated for 10 mins followed by GTP addition and measured after 30 mins relative to control
[12] = system: Enterococcus faecium; test: Antimicrobial activity against drug-susceptible Enterococcus faecium ATCC 49624 measured after 18 hrs by broth microdilution method; format: functional; conditions: ATCC 49624, 18 h
[13] = target: T1, Cell division protein FtsZ (Staphylococcus aureus); test: Inhibition of Staphylococcus aureus FtsZ GTPase activity preincubated for 10 mins followed by GTP addition and measured after 30 mins
[14] = system: Klebsiella pneumoniae; test: Antimicrobial activity against NDM1 beta-lactamase expressing Klebsiella pneumoniae ATCC BAA-2470 measured after 18 hrs by broth microdilution method; format: functional; conditions: ATCC BAA-2470, 18 h
[15] = system: Pseudomonas aeruginosa; test: Antimicrobial activity against multidrug-resistant Pseudomonas aeruginosa ATCC BAA-2108 measured after 18 hrs by broth microdilution method; format: functional; conditions: ATCC BAA-2108, 18 h
[16] = target: T1, Cell division protein FtsZ (Staphylococcus aureus); test: Inhibition of recombinant Staphylococcus aureus FtsZ polymerization by 90 degree light scattering-based fluorescence spectrometric analysis
[17] = system: Staphylococcus aureus; test: Antimicrobial activity against Staphylococcus aureus ATCC 25923 measured after 18 hrs by broth microdilution method; format: functional; conditions: ATCC 25923, 18 h
[18] = system: Staphylococcus aureus; test: Bactericidal activity against methicillin-resistant Staphylococcus aureus ATCC BAA-41 assessed as reduction in bacterial load incubated for 1 to 24 hrs followed by replating on MH agar and measured after 24 hrs by time-kill assay; format: functional, organism-based
[19] = system: Staphylococcus aureus; test: Ratio of MBC to MIC for penicillin-resistant Staphylococcus aureus ATCC 29213; format: functional
[20] = system: Escherichia coli; test: Antibacterial activity against FtsZ over-expressing Escherichia coli BL21 measured after 18 hrs by broth microdilution method; format: functional; conditions: BL21, 18 h
[21] = system: Bacillus subtilis; test: Antibacterial activity against Bacillus subtilis 168 measured after 18 hrs by broth microdilution method; format: functional; conditions: subsp. subtilis str. 168, 18 h
[22] = target: T1, Cell division protein FtsZ (Staphylococcus aureus); test: Inhibition of Staphylococcus aureus FtsZ GTPase activity at 1 ug/ml preincubated for 10 mins followed by GTP addition and measured after 30 mins relative to control
[23] = system: Acinetobacter baumannii; test: Antimicrobial activity against multidrug-resistant Acinetobacter baumannii ATCC 19606 measured after 18 hrs by broth microdilution method; format: functional; conditions: ATCC 19606 = CIP 70.34 = JCM 6841, 18 h
[24] = system: Staphylococcus aureus; test: Antimicrobial activity against methicillin-resistant Staphylococcus aureus ATCC 43300 measured after 18 hrs by broth microdilution method; format: functional; conditions: ATCC 43300, 18 h
[25] = system: Staphylococcus aureus; test: Bactericidal activity against penicillin-resistant Staphylococcus aureus ATCC 29213 incubated for 18 hrs followed by replating on TSB agar and measured after 24 hrs by broth microdilution method; format: functional
[26] = system: Staphylococcus aureus; test: Bactericidal activity against methicillin-resistant Staphylococcus aureus ATCC BAA-41 assessed as reduction in bacterial load at 2 to 4 times MIC incubated for 4 hrs followed by replating on MH agar and measured after 24 hrs by time-kill assay; format: functional, organism-based
[27] = target: T1, Cell division protein FtsZ (Staphylococcus aureus); test: Inhibition of Staphylococcus aureus FtsZ GTPase activity at 32 ug/ml preincubated for 10 mins followed by GTP addition and measured after 30 mins relative to control
[28] = target: T2, Cell division protein FtsZ (Bacillus subtilis (strain 168)) (UniProt P17865); test: Inhibition of cell division function of FtsZ in Bacillus subtilis 168 assessed as cell length at MIC after 4 hrs by FM4-64 dye based confocal microscopic method; conditions: Bacillus subtilis subsp. subtilis str. 168
T2 sequence (whole entry): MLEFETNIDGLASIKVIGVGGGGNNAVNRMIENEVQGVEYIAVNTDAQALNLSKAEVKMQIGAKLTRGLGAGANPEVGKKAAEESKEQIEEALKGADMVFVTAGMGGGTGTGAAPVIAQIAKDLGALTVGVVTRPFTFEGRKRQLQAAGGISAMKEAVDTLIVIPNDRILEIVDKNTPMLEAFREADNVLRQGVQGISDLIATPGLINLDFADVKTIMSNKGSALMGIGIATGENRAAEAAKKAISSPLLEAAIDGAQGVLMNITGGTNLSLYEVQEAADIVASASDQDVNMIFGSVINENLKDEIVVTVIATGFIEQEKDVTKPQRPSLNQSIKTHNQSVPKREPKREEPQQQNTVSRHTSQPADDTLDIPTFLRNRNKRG

[29] = system: Enterobacter cloacae; test: Antimicrobial activity against Ampc beta-lactamase expressing Enterobacter cloacae ATCC BAA-1143 measured after 18 hrs by broth microdilution method; format: functional; conditions: ATCC BAA-1143, 18 h
[30] = system: Staphylococcus aureus; test: Antimicrobial activity against penicillin-resistant Staphylococcus aureus ATCC 29213 measured after 18 hrs by broth microdilution method; format: functional; conditions: ATCC 29213, 18 h
[31] = target: T1, Cell division protein FtsZ (Staphylococcus aureus); test: Inhibition of Staphylococcus aureus FtsZ GTPase activity at 64 ug/ml preincubated for 10 mins followed by GTP addition and measured after 30 mins relative to control
[32] = system: Staphylococcus aureus; test: Bactericidal activity against methicillin-resistant Staphylococcus aureus ATCC BAA-41 assessed as bacterial load at 1 to 4 times MIC incubated for 24 hrs followed by replating on MH agar and measured after 24 hrs by time-kill assay; format: functional
[33] = system: Escherichia coli; test: Antimicrobial activity against NDM1 beta -lactamse expressing Escherichia coli ATCC BAA-2469 measured after 18 hrs by broth microdilution method; format: functional; conditions: ATCC BAA-2469, 18 h
[34] = system: Staphylococcus aureus; test: Bactericidal activity against methicillin-resistant Staphylococcus aureus ATCC BAA-41 incubated for 18 hrs followed by replating on TSB agar and measured after 24 hrs by broth microdilution method; format: functional
[35] = target: T2, Cell division protein FtsZ (Bacillus subtilis (strain 168)); test: Inhibition of cell division function of FtsZ in Bacillus subtilis 168 assessed as increase in cell length at MIC after 4 hrs by FM4-64 dye based confocal microscopic method; conditions: Bacillus subtilis subsp. subtilis str. 168

Row | SMILES | MIC [1] | MIC [3] | Ratio [4] | inhibition [5] | Ratio [6] | MIC [8] | MIC [9] | MIC [10] | inhibition [11] | MIC [12] | inhibition [13] | MIC [14] | MIC [15] | MIC [17] | Ratio [19] | MIC [20] | MIC [21] | inhibition [22] | MIC [23] | MIC [24] | also measured
1 | C[n+]1c(/C=C/c2cc3ccccc3[nH]2)cc(N2CCCCC2)c2ccccc21.[I-] | 4 µg/mL | 4 µg/mL | 4 | 40.8% | 2 | 2 µg/mL | 16 µg/mL | 8 µg/mL | 30.2% | 2 µg/mL | Dose-dependent effect | > 64 µg/mL | > 64 µg/mL | 1 µg/mL | 2 | 32 µg/mL | 4 µg/mL | 17.9% | 32 µg/mL | 2 µg/mL | inhibition [2]: Tde; Activity [7]: Non-Toxic; inhibition [16]: Dose-dependent effect; Activity [18]: Dose-dependent effect; MBC [25]: 2 µg/mL; Activity [26]: Active; inhibition [27]: 48.3%; Activity [28]: 70 to 130 µm; MIC [29]: > 64 µg/mL; MIC [30]: 1 µg/mL; inhibition [31]: 52.1%; Activity [32]: 1 ×10³ CFU/ml; MIC [33]: 16 µg/mL; MBC [34]: 4 µg/mL
2 | C[n+]1c(/C=C/c2c[nH]c3ccccc23)cc(N2CCCCC2)c2ccccc21.[I-] | 4 µg/mL | 4 µg/mL | 4 | 31.8% | 2 | 2 µg/mL | 8 µg/mL | 8 µg/mL | 27.8% | 2 µg/mL | Dose-dependent effect | > 64 µg/mL | > 64 µg/mL | 2 µg/mL | 2 | 16 µg/mL | 4 µg/mL | 13.6% | 16 µg/mL | 4 µg/mL | inhibition [35]: Active; MBC [25]: 2 µg/mL; inhibition [27]: 34.3%; MIC [29]: > 64 µg/mL; MIC [30]: 1 µg/mL; inhibition [31]: 41.9%; MIC [33]: 16 µg/mL; MBC [34]: 4 µg/mL
